Legend:
hERG potassium channel = molecular target: T1, hERG potassium channel (Homo sapiens, UniProt Q12809); experiment: hERG screening assay (PatchXpress patch clamp, CHO cells); format: cell-based; conditions: CHO cells expressing hERG; for HERG 1 uM (block of hERG current): compound at 1 uM; for HERG 10 uM (block of hERG current): compound at 10 uM
T1 construct: expressed in transfected cells; host or cells: CHO (Chinese Hamster Ovary)
Procedure: Compounds were screened to test their activity in blocking the hERG potassium channel. The hERG channel is heterologously expressed in a CHO (Chinese Hamster Ovary) cell line. Cells were maintained with standard tissue culture procedures and stable channel expression was maintained with 500 μg/ml G418 in the culture medium. Cells were harvested for testing on the PatchXpress automated patch clamp with Accumax (Innovative Cell Technologies, San Diego, Calif.) to isolate single cells.
The following solutions were used for electrophysiological recordings. The external solution contained: 2 mM CaCl2; 2 mM MgCl2; 4 mM KCl; 150 mM NaCl; 10 mM Glucose; 10 mM HEPES (pH 7.4 with 1M NaOH, osmolarity). The internal solution contained: 140 mM KCl, 10 mM MgCl2, 6 mM EGTA, 5 mM HEPES, 5 mM ATP (pH adjusted to 7.25 with KOH).
hERG channels were activated when the voltage was stepped to +20 mV from the −80 mV holding potential. During a 5 second step at +20 mV, the channels activated and then largely inactivated, so the currents were relatively small. Upon returning to −50 mV from +20 mV, hERG currents transiently became much larger as inactivation was rapidly removed and then the channel closed. The first step to −50 mV for 300 ms was used as a baseline for measuring the peak amplitude during the step to −50 mV after channel activation. The peak current at −50 mV was measured both under control conditions and after addition of compound.
All compounds were prepared as 10 mM DMSO stocks in glass vials. Stock solutions were mixed by vigorous vortexing and sonication for about 2 minutes at room temperature. For testing, compounds were diluted in glass vials using an intermediate dilution step in pure DMSO and then further diluted to working concentrations in external solution. Dilutions were prepared no longer than 20 minutes before use.
After achieving the whole-cell configuration, cells were monitored for 90 seconds to assess stability and washed with external solution for 66 seconds. The voltage protocol described above was then applied to the cells every 12 seconds and throughout the whole procedure. Only cells with stable recording parameters and meeting specified health criteria were allowed to enter the compound addition procedure.
External solution containing 0.1% DMSO (vehicle) was applied to the cells first to establish the control peak current amplitude. After allowing the current to stabilize for […], 1 μM and then 10 μM test compounds were applied. Each compound concentration was added 4 times and cells were kept in test solution until the effect of the compound reached steady state or for a maximum of 12 minutes. After addition of test compound, a positive control (1 μM Cisapride) was added, and must block >95% of the current for the experiment to be considered valid. Washout in the external solution compartment was performed until the recovery of the current reached steady state. Data was analyzed using DataXpress, Clampfit (Molecular Devices, Inc., Sunnyvale) and Origin 7 (Originlab Corp.)

[1] = molecular target: T2, wild-type human cardiac sodium channel, hNav1.5 (Homo sapiens, UniProt Q14524); experiment: Late INa screening assay (PatchXpress whole cell patch clamp); format: cell-based; conditions: HEK293 hNav1.5; for inhibition at 10 µM: compound at 10 uM, late INa generated with Tefluthrin or ATX II, read-out: Late INa 10 uM (percent block of late INa); for Late INa 1 uM (percent block of late INa): compound at 1 uM
T2 construct: host or cells: HEK293
T2 sequence (Q14524 whole entry): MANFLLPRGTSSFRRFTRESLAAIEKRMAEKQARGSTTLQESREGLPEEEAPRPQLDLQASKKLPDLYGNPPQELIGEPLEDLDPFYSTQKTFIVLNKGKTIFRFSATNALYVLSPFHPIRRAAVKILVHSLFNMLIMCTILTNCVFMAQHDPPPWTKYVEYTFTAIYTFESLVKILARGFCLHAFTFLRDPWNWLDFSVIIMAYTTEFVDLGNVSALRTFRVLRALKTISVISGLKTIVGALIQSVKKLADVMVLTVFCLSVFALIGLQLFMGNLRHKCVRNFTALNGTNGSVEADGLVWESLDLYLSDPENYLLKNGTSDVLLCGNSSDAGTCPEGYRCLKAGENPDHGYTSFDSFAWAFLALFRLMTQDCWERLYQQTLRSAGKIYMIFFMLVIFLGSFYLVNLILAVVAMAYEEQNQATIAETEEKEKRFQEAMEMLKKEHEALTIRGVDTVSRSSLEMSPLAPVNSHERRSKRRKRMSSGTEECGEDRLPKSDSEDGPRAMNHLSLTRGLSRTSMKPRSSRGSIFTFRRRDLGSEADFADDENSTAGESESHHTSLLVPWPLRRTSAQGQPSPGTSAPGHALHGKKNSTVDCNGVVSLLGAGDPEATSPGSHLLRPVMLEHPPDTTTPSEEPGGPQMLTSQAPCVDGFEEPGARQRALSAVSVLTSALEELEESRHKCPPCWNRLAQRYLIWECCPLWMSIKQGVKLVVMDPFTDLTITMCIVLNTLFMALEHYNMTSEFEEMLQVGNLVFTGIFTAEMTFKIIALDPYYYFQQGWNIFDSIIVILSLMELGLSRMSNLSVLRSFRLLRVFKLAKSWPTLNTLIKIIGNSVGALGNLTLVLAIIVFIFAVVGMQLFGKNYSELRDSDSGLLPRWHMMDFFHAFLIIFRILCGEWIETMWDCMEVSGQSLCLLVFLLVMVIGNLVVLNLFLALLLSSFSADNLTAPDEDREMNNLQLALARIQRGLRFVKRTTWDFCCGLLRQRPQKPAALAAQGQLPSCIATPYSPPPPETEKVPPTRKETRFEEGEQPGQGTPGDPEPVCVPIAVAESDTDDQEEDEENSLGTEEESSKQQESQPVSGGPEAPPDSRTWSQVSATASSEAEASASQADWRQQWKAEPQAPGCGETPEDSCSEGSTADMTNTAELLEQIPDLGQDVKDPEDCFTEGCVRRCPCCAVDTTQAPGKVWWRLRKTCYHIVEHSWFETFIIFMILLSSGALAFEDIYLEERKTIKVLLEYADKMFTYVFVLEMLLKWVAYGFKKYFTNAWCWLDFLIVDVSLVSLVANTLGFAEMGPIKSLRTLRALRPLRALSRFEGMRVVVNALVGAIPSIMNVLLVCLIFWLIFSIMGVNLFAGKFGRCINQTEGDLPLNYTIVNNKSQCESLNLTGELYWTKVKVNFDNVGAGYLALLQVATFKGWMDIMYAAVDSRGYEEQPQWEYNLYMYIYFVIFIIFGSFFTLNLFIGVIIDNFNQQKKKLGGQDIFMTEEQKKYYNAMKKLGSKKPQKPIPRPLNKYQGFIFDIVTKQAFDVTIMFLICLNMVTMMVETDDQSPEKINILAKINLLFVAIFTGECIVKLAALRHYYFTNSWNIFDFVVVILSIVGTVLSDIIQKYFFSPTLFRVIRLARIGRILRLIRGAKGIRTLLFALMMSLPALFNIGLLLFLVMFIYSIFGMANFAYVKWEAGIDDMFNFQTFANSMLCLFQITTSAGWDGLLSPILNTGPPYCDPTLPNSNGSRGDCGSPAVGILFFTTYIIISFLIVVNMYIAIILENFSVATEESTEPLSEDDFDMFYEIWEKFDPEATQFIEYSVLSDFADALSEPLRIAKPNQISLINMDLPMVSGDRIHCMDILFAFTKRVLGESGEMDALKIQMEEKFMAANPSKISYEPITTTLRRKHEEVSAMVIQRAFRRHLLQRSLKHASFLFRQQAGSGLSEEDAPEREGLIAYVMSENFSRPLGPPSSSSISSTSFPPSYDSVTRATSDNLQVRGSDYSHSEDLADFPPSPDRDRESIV
Procedure: The late sodium current (Late INa) and peak sodium current (Peak INa) assays were performed on an automated electrophysiology platform, PatchXpress 7000A (MDS Analytical Technologies, Sunnyvale, Calif.), using the whole cell patch clamp technique to measure currents through the cell membrane of up to 16 cells at a time. The assay used an HEK293 (human embryonic kidney) cell line heterologously expressing the wild-type human cardiac sodium channel, hNav1.5, purchased from Millipore (Billerica, Mass.). No beta subunits were coexpressed with the Na channel alpha subunit. Cells were maintained with standard tissue culture procedures, and stable channel expression was maintained with 400 μg/ml Geneticin in the culture medium. Cells isolated for use on PatchXpress were incubated for 5 minutes in Versene 1× and then for 2 minutes in 0.0125% Trypsin-EDTA (both at 37° C.) to ensure that 80-90% of the cells are single and not part of a cell cluster. Experiments were carried out at 24-27° C.
For both the Late INa and Peak INa assays, series resistance compensation was set to 50% and whole-cell compensation was performed automatically. Currents were low-pass filtered at 10 kHz and digitized at 31.25 kHz. Currents through open sodium channels were automatically recorded and stored in the DataXpress2 database (MDS Analytical Technologies, Sunnyvale, Calif.). Analysis was performed using DataXpress2 analysis software and data are compiled in Excel.
Compound stocks were routinely made in glass vials to 10 mM in dimethyl sulfoxide (DMSO). In some cases, when compounds were not soluble in DMSO, they are made in 100% ethanol. Stocks were sonicated as necessary. The extracellular solution for screening Late INa was composed of: 140 mM NaCl, 4 mM KCl, 1.8 mM CaCl2, 0.75 mM MgCl2, and 5 mM HEPES with pH adjusted to 7.4 using NaOH. The extracellular solution for screening Peak INa was composed of: 20 mM NaCl, 120 mM N-methyl-D glucamine, 4 mM KCl, 1.8 mM CaCl2, 0.75 mM MgCl2, and 5 mM HEPES with pH adjusted to 7.4 using HCl. The intracellular solution used to perfuse the inside of the cells for both the Late INa and Peak INa assays contained: 120 mM CsF, 20 mM CsCl, 5 mM EGTA, 5 mM HEPES and pH adjusted to 7.4 with CsOH. Compounds were diluted in extracellular solution to […] in glass vials and then transferred to glass well plates before robotic addition to the cells. The 0Na extracellular solution used at the end of each experiment for the Late INa and Peak INa assays to measure baseline current contained: 140 mM N-methyl-D-glucamine; 4 mM KCl; 1.8 mM CaCl2; 0.75 mM MgCl2; 5 mM HEPES and pH was adjusted to 7.4 with HCl.
For the Late INa assay, sodium channels were activated every 10 seconds (0.1 Hz) by depolarizing the cell membrane to −20 mV for 250 milliseconds (ms) from a holding potential of −120 mV. In response to a −20 mV voltage step, typical Nav1.5 sodium currents activated rapidly to a peak negative current and then inactivated nearly completely within 3-4 ms.
All compounds were tested to determine their activity in blocking the late sodium current. Late INa current was generated by adding 10 μM Tefluthrin (pyrethroid) to the extracellular solution while recording Na currents. For some experiments, 50 nM ATX II (sea anemone toxin), another late INa activator, was used to generate the late component. Both activators generated late components that are large, and thus block of the late component by compounds could be measured easily. For the purposes of the screening, late INa is defined as the mean current between 225 ms and 250 ms after stepping to −20 mV to activate Na channels. After establishing the whole cell recording configuration, late INa activators were added to each well 4 times over a 16-17 minute period so that the late component of the Na current reached a stable value. Compounds were then added (typically at 10 μM), in the presence of late INa activator, with 3 additions over the course of 7 or 8 minutes. […]

T1 sequence (Q12809 whole entry): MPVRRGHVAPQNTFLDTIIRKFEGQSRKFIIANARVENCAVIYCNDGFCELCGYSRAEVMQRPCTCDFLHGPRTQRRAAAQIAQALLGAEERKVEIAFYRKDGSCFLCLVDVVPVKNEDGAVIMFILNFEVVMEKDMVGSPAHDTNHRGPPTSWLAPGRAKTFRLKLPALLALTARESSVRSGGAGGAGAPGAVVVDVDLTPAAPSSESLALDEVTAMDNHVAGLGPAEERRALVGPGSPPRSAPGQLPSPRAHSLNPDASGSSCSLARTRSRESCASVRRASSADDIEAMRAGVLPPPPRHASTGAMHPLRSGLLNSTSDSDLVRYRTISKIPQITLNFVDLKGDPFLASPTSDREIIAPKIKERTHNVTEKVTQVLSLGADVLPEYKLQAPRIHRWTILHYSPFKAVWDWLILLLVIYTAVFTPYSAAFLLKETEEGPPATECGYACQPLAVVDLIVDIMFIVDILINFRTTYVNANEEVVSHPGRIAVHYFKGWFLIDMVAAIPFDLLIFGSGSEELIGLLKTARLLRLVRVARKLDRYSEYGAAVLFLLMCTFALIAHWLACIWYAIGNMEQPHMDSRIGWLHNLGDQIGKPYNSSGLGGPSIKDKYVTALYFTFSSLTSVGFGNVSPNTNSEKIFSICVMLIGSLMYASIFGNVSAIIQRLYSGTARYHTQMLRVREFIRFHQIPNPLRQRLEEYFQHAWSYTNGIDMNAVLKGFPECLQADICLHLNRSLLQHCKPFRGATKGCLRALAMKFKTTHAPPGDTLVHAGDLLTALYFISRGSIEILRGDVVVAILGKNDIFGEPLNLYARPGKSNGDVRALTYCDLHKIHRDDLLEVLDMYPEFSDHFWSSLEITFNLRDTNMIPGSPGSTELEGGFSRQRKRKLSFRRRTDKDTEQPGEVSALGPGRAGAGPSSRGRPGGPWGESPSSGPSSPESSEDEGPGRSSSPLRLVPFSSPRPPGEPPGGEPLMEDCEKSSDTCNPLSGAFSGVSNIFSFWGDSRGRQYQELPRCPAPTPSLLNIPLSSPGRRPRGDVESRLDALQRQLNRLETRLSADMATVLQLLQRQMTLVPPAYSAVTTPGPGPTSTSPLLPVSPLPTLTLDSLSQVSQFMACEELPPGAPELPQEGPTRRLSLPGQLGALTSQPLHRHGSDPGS

SMILES | HERG 1 uM (block of hERG current) (hERG potassium channel) [%] | HERG 10 uM (block of hERG current) (hERG potassium channel) [%] | inhibition at 10 µM [1] [%] | Late INa 1 uM (percent block of late INa) [1] [%]
Cc1nc2cc(-c3cccc(OC(F)(F)F)c3)ccc2n(C)c1=O [1,3-dimethyl-6-[3-(trifluoromethoxy)phenyl] quinoxalin-2(1H)-one] | 19.5 | 71.5 | 70.9 | –
Cc1nc2cc(-c3ccc(OC(F)(F)F)cc3)ccc2n(C)c1=O [1,3-dimethyl-6-[4-(trifluoromethoxy)phenyl] quinoxalin-2(1H)-one] | – | – | 33.7 | –
Cc1nc2ccc(-c3cccc(C(F)(F)F)c3)cc2n(C)c1=O [1,3-dimethyl-7-[3-(trifluoromethyl)phenyl] quinoxalin-2(1H)-one] | – | – | 45.5 | –
Cc1nc2ccc(-c3ccc(OC(F)(F)F)cc3)cc2n(C)c1=O [1,3-dimethyl-7-[4-(trifluoromethoxy)phenyl] quinoxalin-2(1H)-one] | – | – | 61.7 | 31.0
Cc1nc2ccc(-c3ccc(C(F)(F)F)cc3)cc2n(C)c1=O [1,3-dimethyl-7-[4-(trifluoromethyl)phenyl] quinoxalin-2(1H)-one] | 25.0 | 69.5 | 58.3 | –
CC(C)c1nc2ccc(-c3cccc(OC(F)(F)F)c3)cc2n(C)c1=O [1-methyl-3-(propan-2-yl)-7-[3-(trifluoromethoxy)phenyl] quinoxalin-2(1H)-one] | – | – | 49.9 | –
CC(C)c1nc2ccc(-c3ccc(OC(F)(F)F)cc3)cc2n(C)c1=O [1-methyl-3-(propan-2-yl)-7-[4-(trifluoromethoxy)phenyl] quinoxalin-2(1H)-one] | 10.0 | 10.0 | 60.3 | 31.3
Cn1c(=O)c(C(F)(F)F)nc2cc(-c3cccc(C(F)(F)F)c3)ccc21 [1-methyl-3-(trifluoromethyl)-6-[3-(trifluoromethyl)phenyl] quinoxalin-2(1H)-one] | – | – | 24 | –
Cn1c(=O)c(C(F)(F)F)nc2cc(-c3cccc(OC(F)(F)F)c3)ccc21 [1-methyl-6-[3-(trifluoromethoxy)phenyl]-3-(trifluoromethyl)quinoxalin-2(1H)-one] | – | – | 31.6 | –
Cn1c(=O)c(C(F)(F)F)nc2cc(-c3ccc(OC(F)(F)F)cc3)ccc21 [1-methyl-6-[4-(trifluoromethoxy)phenyl]-3-(trifluoromethyl)quinoxalin-2(1H)-one] | 10.0 | 47.5 | 39.9 | –
Cn1c(=O)cnc2ccc(-c3ccc(OC(F)(F)F)cc3)cc21 [1-methyl-7-[4-(trifluoromethoxy)phenyl] quinoxalin-2(1H)-one] | 10.00 | 41.5 | 51.6 | –
Cn1c(=O)c(C(F)(F)F)nc2ccc(-c3ccc(OC(F)(F)F)cc3)cc21 [1-methyl-7-[4-(trifluoromethoxy)phenyl]-3-(trifluoromethyl)quinoxalin-2(1H)-one] | 10.00 | 39.0 | 38.7 | –
O=C(CO)NCCn1c(=O)c(C(F)(F)F)nc2ccc(-c3ccc(OC(F)(F)F)cc3)cc21 [2-hydroxy-N-(2-{2-oxo-7-[4-(trifiuoromethoxy)phenyl]-3-(trifluoromethyl)quinoxalin-1(2H)-yl}ethyl)acetamide] | – | – | 19 | –
Cn1c(=O)c(C(C)(C)O)nc2ccc(-c3ccc(OC(F)(F)F)cc3)cc21 [3-(2-hydroxypropan-2-yl)-1-methyl-7-[4-(trifluoromethoxy)phenyl] quinoxalin-2(1H)-one] | 19.5 | 76.0 | 54 | –
Cn1c(=O)c(C(C)(C)C)nc2ccc(-c3cccc(OC(F)(F)F)c3)cc21 [3-tert-butyl-1-methyl-7-[3-(trifluoromethoxy)phenyl] quinoxalin-2(1H)-one] | 10.0 | 10.0 | 77.5 | 51.3
Cn1c(=O)c(C(C)(C)C)nc2ccc(-c3ccc(OC(F)(F)F)cc3)cc21 [3-tert-butyl-1-methyl-7-[4-(trifluoromethoxy)phenyl] quinoxalin-2(1H)-one] | – | – | 44.6 | –
Cc1nc2cc(-c3ccc(F)c(F)c3)ccc2n(C)c1=O [6-(3,4-difluorophenyl)-1,3-dimethylquinoxalin-2(1H)-one] | – | – | 14.3 | –
Cn1c(=O)cnc2ccc(-c3ccc(F)c(F)c3)cc21 [7-(3,4-difluorophenyl)-1-methylquinoxalin-2(1H)-one] | – | – | 17.5 | –
CC(C)(C)c1nc2ccc(-c3cccc(OC(F)(F)F)c3)cc2n(CCNC(=O)CO)c1=O [N-(2-{3-tert-butyl-2-oxo-7-[3-(trifiuoromethoxy)phenyl]quinoxalin-1(2H)-yl}ethyl)-2-hydroxyacetamide] | – | – | 58.1 | –
CCOC(=O)c1nc2ccc(-c3cccc(OC(F)(F)F)c3)cc2n(C)c1=O [ethyl 4-methyl-3-oxo-6-[3-(trifluoromethoxy)phenyl]-3,4-dihydroquinoxaline-2-carboxylate] | – | – | 54.3 | –
